Molecular target: T1, human CCR2 (Homo sapiens, UniProt P41597)
T1 construct: expressed in transfected cells; host or cells: Ba/F3 cells (membrane preparation)
Experiment: CCR2 Membrane Binding Assay (SPA radio-ligand binding, 125I-rhMCP-1)
Details: membranes from Ba/F3 cells transfected with human CCR2, 0.03 nM 125I-rhMCP-1
Procedure: The radio-ligand binding assay was done using scintillation proximity assay (SPA) technology. Briefly, membranes (1 μg per assay point) from Ba/F3 cells transfected with human CCR2, and wheat germ agglutinin-coated SPA beads (80 μg per point; Amersham, Arlington Heights, Ill.), were pre-incubated for 30 min at room temperature in CCR2 buffer (50 mM HEPES (pH=7.4), 10 mM MgCl2, 10 mM NaCl, 1 mM CaCL2, 0.1% BSA, 10 μg/ml Saponin). At this point pre-bound SPA bead, membrane complex was incubated at room temperature for 4 h with varying concentrations of punitive CCR2 antagonists (in 1% DMSO, final) and 0.03 nM ^125I-rhMCP-1 in CCR2Buffer (S.A. 2200 Ci/mmol, PerkinElmer Life and Analytical Science, Boston, Mass.; NEX332). Binding competition was measured using a 1450 Microbeta Trilux counter (Wallac, Gaithersburg, Md.). Binding constants (IC50 and slope) were calculated using GraphPad Prism software (GraphPad Software, Inc., La Jolla Calif.).

T1 sequence (P41597 whole entry): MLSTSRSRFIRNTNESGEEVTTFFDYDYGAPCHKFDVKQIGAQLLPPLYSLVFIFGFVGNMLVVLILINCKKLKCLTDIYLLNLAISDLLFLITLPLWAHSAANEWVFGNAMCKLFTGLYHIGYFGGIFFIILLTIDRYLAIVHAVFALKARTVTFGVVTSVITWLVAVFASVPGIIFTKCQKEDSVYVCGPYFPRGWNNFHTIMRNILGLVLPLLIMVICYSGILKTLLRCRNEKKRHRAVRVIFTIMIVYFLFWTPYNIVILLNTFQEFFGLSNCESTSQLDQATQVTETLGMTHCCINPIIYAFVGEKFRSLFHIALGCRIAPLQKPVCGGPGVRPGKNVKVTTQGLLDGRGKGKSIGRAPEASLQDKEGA

| IC50 (class symbols) [nM] | Structure (SMILES) | other results |
| --- | --- | --- |
|  | CC(CCc1ccccc1)N1C[C@@H]2[C@H](C1)[C@H]2C(=O)NCC(=O)Nc1cccc(C(F)(F)F)c1 (stereo partly drawn) [Compound 50] | IC50 (nM) (class symbols): D (compounds with IC50 values between 701 nM and 110 nM are designated as D class compounds) |
| < 50 | O=C(CNC(=O)[C@H]1[C@@H]2CN([C@H]3CC[C@@H](Nc4ccc(F)c(F)c4)CC3)C[C@@H]21)Nc1cccc(C(F)(F)F)c1 [Compound 148] |  |
|  | O=C1CCC(N2C[C@@H]3[C@H](C2)[C@H]3C(=O)NCC(=O)Nc2cccc(C(F)(F)F)c2)CC1 [Compound 29] | IC50 (nM) (class symbols): D (compounds with IC50 values between 701 nM and 110 nM are designated as D class compounds) |
| 201 to 700 | O=C(NCCc1cccc(C(F)(F)F)c1)C1[C@H]2CN(C3CCCOC3)C[C@@H]12 (stereo partly drawn) [Compound 162] |  |
|  | O=C(CNC(=O)[C@H]1[C@@H]2CN([C@H]3CC[C@@H](c4ncccn4)CC3)C[C@@H]21)Nc1cccc(C(F)(F)F)c1 [Compound 90] | IC50 (4 h room temperature): 7.6 nM |
| 201 to 700 | CC(C1CC1)N1C[C@@H]2[C@H](C1)[C@H]2C(=O)NCC(=O)Nc1cccc(C(F)(F)F)c1 (stereo partly drawn) [Compound 12] |  |
|  | O=C(CNC(=O)[C@H]1[C@@H]2CN(C3CCC(O)(c4ccc5c(c4)OCO5)CC3)C[C@@H]21)Nc1cccc(C(F)(F)F)c1 (stereo partly drawn) [Compound 152] | IC50 (4 h room temperature): 10 nM |
| 51 to 200 | O=C(CNC(=O)C1C2CN(C3CCOCC3)CC21)Nc1cccc(C(F)(F)F)c1 (stereo not drawn) [Compound 21] |  |
|  | O=C(CNC(=O)[C@H]1[C@@H]2CN([C@H]3CC[C@@H](c4ccccc4)OC3)C[C@@H]21)Nc1cccc(C(F)(F)F)c1 [Compound 89] | IC50 (4 h room temperature): 3.6 nM |
| 201 to 700 | O=C(CNC(=O)[C@H]1[C@@H]2CN(C3CCC3)C[C@@H]21)Nc1cccc(C(F)(F)F)c1 [Compound 110] |  |
|  | O=C(NCCc1ccccc1)[C@H]1[C@@H]2CN([C@H]3CC[C@@H](c4ccccc4)CC3)C[C@@H]21 [Compound 10] | IC50 (nM) (class symbols): D (compounds with IC50 values between 701 nM and 110 nM are designated as D class compounds) |
| 51 to 200 | O=C(CNC(=O)[C@H]1[C@@H]2CN(C3CCC(O)(c4nccs4)CC3)C[C@@H]21)Nc1cccc(C(F)(F)F)c1 (stereo partly drawn) [Compound 122] |  |
|  | O=C([C@H]1[C@@H]2CN([C@H]3CC[C@@H](c4ccccc4)CC3)C[C@@H]21)N1CC(Oc2ccc(C(F)(F)F)cc2)C1 [Compound 76] | IC50 (nM) (class symbols): D (compounds with IC50 values between 701 nM and 110 nM are designated as D class compounds) |
|  | CC=C1CCC(N2C[C@@H]3[C@H](C2)[C@H]3C(=O)NCC(=O)Nc2cccc(C(F)(F)F)c2)CC1 (stereo partly drawn) [Compound 37] | IC50 (nM) (class symbols): D (compounds with IC50 values between 701 nM and 110 nM are designated as D class compounds) |
|  | CC(C)(C)C1CCC(N2C[C@@H]3[C@H](C2)[C@H]3C(=O)NCC(=O)Nc2cccc(C(F)(F)F)c2)CC1 (stereo partly drawn) [Compound 54] | IC50 (nM) (class symbols): D (compounds with IC50 values between 701 nM and 110 nM are designated as D class compounds) |
| 201 to 700 | CC(C)(C)OC(=O)[C@H]1CC[C@@H](N2C[C@@H]3[C@H](C2)[C@H]3C(=O)NCC(=O)Nc2cccc(C(F)(F)F)c2)CC1 [Compound 124] |  |
|  | Cn1cc([C@H]2CC[C@@H](N3C[C@@H]4[C@H](C3)[C@H]4C(=O)NCC(=O)Nc3cccc(C(F)(F)F)c3)CC2)cn1 [Compound 94] | IC50 (4 h room temperature): 13.6 nM |
|  | O=C(CNC(=O)[C@H]1[C@@H]2CN([C@H]3CC[C@H](c4ccccc4)CC3)C[C@@H]21)Nc1cccc(C(F)(F)F)c1 [Compound 79] | IC50 (nM) (class symbols): D (compounds with IC50 values between 701 nM and 110 nM are designated as D class compounds) |
|  | O=C(CNC(=O)[C@H]1[C@@H]2CN([C@H]3CC[C@@H](c4cccnc4)CC3)C[C@@H]21)Nc1cccc(C(F)(F)F)c1 [Compound 82] | IC50 (4 h room temperature): 4 nM |
|  | CC(N1C[C@@H]2[C@H](C1)[C@H]2C(=O)NCC(=O)Nc1cccc(C(F)(F)F)c1)C1(C)CC1 (stereo partly drawn) [Compound 20] | IC50 (nM) (class symbols): D (compounds with IC50 values between 701 nM and 110 nM are designated as D class compounds) |
| 201 to 700 | CN(C(=O)[C@H]1[C@@H]2CN([C@H]3CC[C@@H](c4ccccc4)CC3)C[C@@H]21)[C@H]1CCN(c2ncc(C(F)(F)F)cn2)C1 [Compound 129] |  |
| 201 to 700 | COc1ccc(CC2CCCC(N3C[C@@H]4[C@H](C3)[C@H]4C(=O)NCC(=O)Nc3cccc(C(F)(F)F)c3)C2)cc1 (stereo partly drawn) [Compound 146] |  |
|  | COc1ccc([C@H]2CC[C@@H](N3C[C@@H]4[C@H](C3)[C@H]4C(=O)NCC(=O)Nc3cccc(C(F)(F)F)c3)CC2)cc1 [Compound 130] | IC50 (4 h room temperature): 4 nM |
| < 50 | O=C(CNC(=O)[C@H]1[C@@H]2CN([C@H]3CC[C@@H](c4cc(Br)c(O)c(Br)c4)CC3)C[C@@H]21)Nc1cccc(C(F)(F)F)c1 [Compound 163] |  |

| IC50 (class symbols) [nM] | Structure (SMILES) | other results |
| --- | --- | --- |
| 201 to 700 | O=C(NCC1(c2cccc(C(F)(F)F)c2)CC1)[C@H]1[C@@H]2CN([C@H]3CC[C@@H](c4ccccc4)CC3)C[C@@H]21 [Compound 74] |  |
|  | O=C(CNC(=O)[C@H]1[C@@H]2CN([C@H]3CC[C@@H](c4ccc(O)cc4)CC3)C[C@@H]21)Nc1cccc(C(F)(F)F)c1 [Compound 114] | IC50 (4 h room temperature): 3.1 nM |
| 201 to 700 | O=C(CNC(=O)[C@H]1[C@@H]2CN(C3CC(CO)C3)C[C@@H]21)Nc1cccc(C(F)(F)F)c1 (stereo partly drawn) [Compound 23] |  |
| 51 to 200 | O=C(CNC(=O)[C@H]1[C@@H]2CN(C3CC(c4ccccc4)C3)C[C@@H]21)Nc1cccc(C(F)(F)F)c1 (stereo partly drawn) [Compound 49] |  |
|  | O=C(CNC(=O)[C@H]1[C@@H]2CN([C@H]3CC[C@@H](NS(=O)(=O)C4CC4)CC3)C[C@@H]21)Nc1cccc(C(F)(F)F)c1 [Compound 142] | IC50 (nM) (class symbols): D (compounds with IC50 values between 701 nM and 110 nM are designated as D class compounds) |
|  | O=C(CNC(=O)[C@H]1[C@@H]2CN([C@H]3CC[C@@H](c4ccc5c(c4)OCO5)CC3)C[C@@H]21)Nc1cccc(C(F)(F)F)c1 [Compound 143] | IC50 (4 h room temperature): 4.1 nM |
|  | COc1ccc(C2(O)CCC(N3C[C@@H]4[C@H](C3)[C@H]4C(=O)NCC(=O)Nc3cccc(C(F)(F)F)c3)CC2)cn1 (stereo partly drawn) [Compound 147] | IC50 (4 h room temperature): 4.5 nM |
|  | O=C(CNC(=O)[C@H]1[C@@H]2CN(C3CCCC(c4ccccc4)C3)C[C@@H]21)Nc1cccc(C(F)(F)F)c1 (stereo partly drawn) [Compound 80] | IC50 (nM) (class symbols): D (compounds with IC50 values between 701 nM and 110 nM are designated as D class compounds) |
| 51 to 200 | O=C(NCCCc1cccc(C(F)(F)F)c1)[C@H]1[C@@H]2CN([C@H]3CC[C@@H](c4ccccc4)CC3)C[C@@H]21 [Compound 62] |  |
| 201 to 700 | O=C(CNC(=O)[C@H]1[C@@H]2CN([C@H]3CC[C@H](NC(=O)OCc4ccccc4)CC3)C[C@@H]21)Nc1cccc(C(F)(F)F)c1 [Compound 155] |  |
|  | O=C(CNC(=O)[C@H]1[C@@H]2CN([C@H]3CC[C@@H](c4ccsc4)CC3)C[C@@H]21)Nc1cccc(C(F)(F)F)c1 [Compound 97] | IC50 (4 h room temperature): 3.7 nM |
| < 50 | O=C(CNC(=O)[C@H]1[C@@H]2CN([C@H]3CC[C@H](c4ccc(O)cc4)CC3)C[C@@H]21)Nc1cccc(C(F)(F)F)c1 [Compound 115] |  |
|  | O=C(CNC(=O)[C@H]1[C@@H]2CN(C3CCC(c4ccccc4)CC3)C[C@@H]21)Nc1cccc(C(F)(F)F)c1 (stereo partly drawn) [Compound 4] | IC50 (4 h room temperature): 3.5 nM |
| < 50 | O=C(CNC(=O)[C@H]1[C@@H]2CN([C@H]3CC[C@@H](c4ccc(OCc5ccccc5)cc4)CC3)C[C@@H]21)Nc1cccc(C(F)(F)F)c1 [Compound 160] |  |
|  | CCCC(C)N1C[C@@H]2[C@H](C1)[C@H]2C(=O)NCC(=O)Nc1cccc(C(F)(F)F)c1 (stereo partly drawn) [Compound 14] | IC50 (nM) (class symbols): D (compounds with IC50 values between 701 nM and 110 nM are designated as D class compounds) |
| < 50 | O=C(CNC(=O)[C@H]1[C@@H]2CN([C@H]3CC[C@@H](c4cncnc4)CC3)C[C@@H]21)Nc1cccc(C(F)(F)F)c1 [Compound 91] |  |
| < 50 | O=C(CNC(=O)[C@H]1[C@@H]2CN([C@H]3CC[C@@H](c4ccc(=O)[nH]c4)CC3)C[C@@H]21)Nc1cccc(C(F)(F)F)c1 [Compound 117] |  |
| 201 to 700 | CC(C)N1C[C@@H]2C(C(=O)NCCc3cccc(C(F)(F)F)c3)[C@@H]2C1 (stereo partly drawn) [Compound 18] |  |
| 201 to 700 | Cc1[nH]c2c(C(F)(F)F)cccc2c1CCNC(=O)[C@H]1[C@@H]2CN([C@H]3CC[C@@H](c4ccccc4)CC3)C[C@@H]21 [Compound 125] |  |
| 201 to 700 | O=C([C@H]1[C@@H]2CN([C@H]3CC[C@@H](c4ccccc4)CC3)C[C@@H]21)N1CCC(Nc2nccc(C(F)(F)F)n2)CC1 [Compound 128] |  |
|  | O=C(NC1Cc2ccccc2C1)[C@H]1[C@@H]2CN([C@H]3CC[C@@H](c4ccccc4)CC3)C[C@@H]21 [Compound 16] | IC50 (nM) (class symbols): D (compounds with IC50 values between 701 nM and 110 nM are designated as D class compounds) |
| 51 to 200 | COc1ccc(CC2CCCC(N3C[C@@H]4[C@H](C3)[C@H]4C(=O)NCC(=O)Nc3cccc(C(F)(F)F)c3)C2)cc1 (stereo partly drawn) [Compound 144] |  |
|  | Cn1cc([C@H]2CC[C@H](N3C[C@@H]4[C@H](C3)[C@H]4C(=O)NCC(=O)Nc3cccc(C(F)(F)F)c3)CC2)cn1 [Compound 96] | IC50 (nM) (class symbols): D (compounds with IC50 values between 701 nM and 110 nM are designated as D class compounds) |
| 51 to 200 | O=C([C@H]1[C@@H]2CN([C@H]3CC[C@@H](c4ccccc4)CC3)C[C@@H]21)N1CC[C@H](Nc2nccc(C(F)(F)F)n2)C1 [Compound 111] |  |

Reference: patent US20140005165A1, “SUBSTITUTED 3-AZABICYCLO[3.1.0]HEXANE DERIVATIVES USEFUL AS CCR2 ANTAGONISTS” (priority 2011, published 2014)
